Experiments:
[1] = tested on: human gastric adenocarcinoma (AGS) cells; test: Sulforhodamine B (SRB) cell cytotoxicity assay, AGS cells; assay type: cell-based; settings: for viability at 0.24 µg/mL / EC50: Homo sapiens; for viability at 0.24 µg/mL: AGS, 240 ng/mL, Figure 2, read-out: viability (%) in the AGS screen; for viability at 0.24 µg/mL / cytotoxicity against AGS cells at the lowest concentration: 24 h; for cytotoxicity to AGS cells (preliminary screen): 60, 120 and 240 ng/mL, 24 h of incubation; for cytotoxicity against AGS cells at the lowest concentration: 60 ng/mL; for Emax / EC50: AGS cells; for Emax: maximal drug effect on viability rate, 1 = no effect, 0 = fully cytotoxic; for EC50: 24 h of drug treatment, SRB assay
Description: (§1) […] The cell lines were expanded, cultured, and maintained at 37 °C in a humid atmosphere with 5% CO2 in modified Dulbecco’s medium (Thermo Fisher Scientific, Waltham, MA, USA), with 10% FBS (Thermo Fisher Scientific, Waltham, MA, USA) and 100 U/mL of the antibiotic mixture penicillin/streptomycin (Thermo Fisher Scientific, Waltham, MA, USA).
(§2) We evaluated the cytotoxicity effects of novel Myrtenal hybrids against on cells by the sulforhodamine B (SRB) assay. Initially, the cells were seeded in 96-well microplates at a density of 2 × 10^4 cells/well. All compounds were initially dissolved in 100% of methanol and prediluted to reduce methanol concentration to 1% or lower in culture medium and added to the cells at different concentrations for 24 h. Then, cells were fixed by adding 10% (w/v) trichloroacetic acid (TCA) (Winkler) in each well and were stained with 0.057% (w/v) Sulforhodamine B (SRB) (Sigma-Aldrich) in 1% (v/v) acetic acid (Winkler). The bound dye was dissolved in 10 mM Tris base (Sigma-Aldrich), and the absorbance was determined at 510 nm using a multiplate reader (Synergy 2, Biotek Instruments). Percentage cell viability was determined using the formula: […]. The absorbance from the wells of the negative control (1% methanol in culture medium) was considered as the 100% viability. EC50 values were determined by regression analysis (R^2 > 0.95) of the corresponding dose response curves of percentage of cell viability and concentration of the compounds. Emax, the maximum effect of the drug at the highest tested concentration were determined using an online calculator (http://www.grcalculator.org/). Emax lies between 1 and 0; a value of 0 corresponds to a fully cytotoxic response.

[2] = tested on: human colon adenocarcinoma (HT-29) cells; test: Sulforhodamine B (SRB) cell cytotoxicity assay, HT-29 cells; assay type: cell-based; settings: HT29 cells; for Emax: maximal drug effect on viability rate, 1 = no effect, 0 = fully cytotoxic; for EC50: Homo sapiens, HT-29, 24 h of drug treatment, SRB assay
Description: as §1, §2

[3] = tested on: human dermal fibroblast (HDF) cells; test: Sulforhodamine B (SRB) cell cytotoxicity assay, HDF non-cancer cells; assay type: cell-based; settings: 60, 120 and 240 ng/mL, 24 h
Description: as §1, §2

primary CD4+ T cells = test: Viability and cell count of activated CD4+ T lymphocytes per proliferation cycle (flow cytometry); assay type: cell-based, human; settings: compounds added at EC25 48 h after activation, incubated four days; for viability of non-proliferating CD4+ T cells: cycle 0 and 1; for viability / number of proliferating CD4+ T cells: cycle 2, 3 and 4
Description: CD4+ T cells were first stained with a cell tracer dye, a fluorescent reagent that diffuses into cells and binds covalently to intracellular amines, and then with a Live/Dead dye that permeates into cells with damaged membranes, while live cells remain unstained. In addition, counting beads were added into each sample to calculate the exact number of cells per cell cycle (Figure 4A). Then, in order to induce proliferation, fluorescent-labelled CD4+ T cells were activated with anti-CD3/CD28 beads, which mimic physiological T cell receptor triggering and co-stimulation in T lymphocytes. After activation, a proportion of cells proliferated, while some stayed in a non-proliferative state. […] Myrtenyl derivatives were added after the second day of culture to evaluate their effect on non-proliferating CD4+ T cells at cycle 0 and 1 and in proliferating cells in cycle 2, 3, and 4. Live CD4+ T cells activated in the presence of five Myrtenyl derivatives were counted and results were normalized with the control sample per cell cycle.
CD4+ T cells were obtained from peripheral blood from healthy volunteers. Blood samples were diluted 1:2 with PBS before adding 50 μL/mL of RosettSep Human CD4+ T cell enrichment cocktail (STEM CELL) for 20 min at room temperature. After incubation, samples were diluted again 1:4 with PBS and CD4+ T cells were obtained directly from the mononuclear fraction obtained after Ficoll–Hypaque density gradient centrifugation. CD4+ T cells were washed twice, counted, and resuspended in PBS. CD4+ T cells were then stained with 1 μM Cell Trace Violet Cell Proliferation Kit (Invitrogen, Thermo Fisher Scientific, Waltham, MA, USA) for 20 min at 37 °C, protected from light. Unbound dye was quenched by adding cold FCS for 5 min at 4 °C. CD4+ T cells were washed two times and resuspended in X–VIVO (Gibco) with IL–2 (50 U/mL, ProLeukin). Cells (2 × 10^5) were activated for 48 h with CD3/CD28 Dynabeads (Invitrogen) prior to adding the compounds. After 48 h, compounds were added (EC25) and incubated for four days. To analyze proliferation and viability, cells were stained with Live/Dead fixable far red dead cell staining kit (Invitrogen) for 30 min at 4 °C and counting beads were added before acquisition. Cells were acquired on an LSRFortessa X20 (BD) within 24 h. Data were analyzed using FlowJo (Tree Star, Inc., Ashland, OR, USA).

[4] = tested on: human breast adenocarcinoma (MCF-7) cells; test: Sulforhodamine B (SRB) cell cytotoxicity assay, MCF-7 cells; assay type: cell-based; settings: for EC50: Homo sapiens, MCF7, 24 h of drug treatment, SRB assay; for Emax: maximal drug effect on viability rate, 1 = no effect, 0 = fully cytotoxic
Description: as §1, §2

[5] = tested on: AGS, MCF-7 and HT-29 cells; test: SRB cytotoxicity assay, summary over the three cancer cell lines; assay type: cell-based; settings: Homo sapiens, MCF-7 and HT-29, 24 h, read-out: EC50 range over the cancer cell lines
Description: as §1
as §2, with “All compounds were initially dissolved in 100% of methanol and prediluted to reduce methanol concentration to 1% or lower in culture medium and added to the cells at different concentrations for 24 h. Then, cells were fixed by adding 10% (w/v) trichloroacetic acid (TCA) (Winkler) in each well and were stained with 0.057% (w/v) Sulforhodamine B (SRB) (Sigma-Aldrich) in 1% (v/v) acetic acid (Winkler).” left out, “Emax lies between 1 and 0; a value of 0 corresponds to a fully cytotoxic response.” left out

C#CCN(C(C)=O)C(C(=O)NC1CCCCC1)C1=CC[C@H]2C[C@@H]1C2(C)C (mixture of isomers) [1c, N-cyclohexyl-2-((1R,5S)-6,6-dimethylbicyclo[3.1.1]hept-2-en-2-yl)-2-(N-(prop-2-yn-1-yl)acetamido) acetamide] gave a viability at 0.24 µg/mL [1] of 40%.

For CC(=O)N(CC#CC#CCN(C(C)=O)C(C(=O)NC1CCCCC1)C1=CC[C@H]2C[C@@H]1C2(C)C)C(C(=O)NC1CCCCC1)C1=CC[C@H]2C[C@@H]1C2(C)C (mixture of isomers) [4b, 2,2′-[hexa-2,4-diyne-1,6-diylbis(acetylazanediyl)]-bis[N-cyclohexyl-2-((1R,5S)-6,6-dimethylbicyclo[3.1.1]hept-2-en-2-yl)acetamide]], the “cytotoxicity to AGS cells (preliminary screen)” value [1] was “not cytotoxic”.

CC(=O)N(Cc1ccccc1)C(C(=O)NC1CCCCC1)C1=CC[C@H]2C[C@@H]1C2(C)C (stereo partly drawn) [1a, 2-(N-benzylacetamido)-N-cyclohexyl-2-((1R,5S)-6,6-dimethylbicyclo[3.1.1]hept-2-en-2-yl)acetamide] was tested, and the “cytotoxicity against AGS cells at the lowest concentration” value (from here on “cytotoxicity against AGS cells”) [1] was “high cytotoxicity”, the Emax [1] was 0.1 and the EC50 [1] was 46 nM. The Emax [2] was 0.1, the EC50 [2] was 68 nM and the “effect on HDF viability (preliminary screen)” value (“effect on HDF viability” below) [3] was “without affecting HDF viability”. For the same compound, the “viability of non-proliferating CD4+ T cells at cycle 0” value (primary CD4+ T cells) was “more cytotoxic than 3c”, the “viability of non-proliferating CD4+ T cells” value (primary CD4+ T cells) was “reduced viability” and the “viability / number of proliferating CD4+ T cells” value (“viability / number” for short) (primary CD4+ T cells) was “reduced viability”. For the same compound, the EC50 [4] was 65 nM and the Emax [4] was 0.1.

C#CCN(CC(=O)NC1CCCCC1)C(=O)C1=CC[C@H]2C[C@@H]1C2(C)C [2c, (1R,5S)-N-[2-(cyclohexylamino)-2-oxoethyl]-6,6-dimethyl-N-(prop-2-yn-1-yl)bicyclo[3.1.1]hept-2-ene-2-carboxamide] showed a viability at 0.24 µg/mL [1] of 60%.

With Cc1ccc(-n2cc(CN(CC(=O)NC3CCCCC3)C(=O)C3=CC[C@H]4C[C@@H]3C4(C)C)nn2)cc1 [3a, (1R,5S)-N-[2-(cyclohexylamino)-2-oxoethyl]-6,6-dimethyl-N-{[1-(p-tolyl)-1H-1,2,3-triazol-4-yl]methyl} bicyclo[3.1.1]hept-2-ene-2-carboxamide] the “cytotoxicity against AGS cells” value [1] was “high cytotoxicity”, the Emax [1] was 0.1 and the EC50 [1] was 50 nM. The Emax [2] was 0.3, the EC50 [2] was 59 nM and the “effect on HDF viability” value [3] was “without affecting HDF viability”. The “viability of non-proliferating CD4+ T cells at cycle 0” value (primary CD4+ T cells) was “more cytotoxic than 3c”, the “viability of non-proliferating CD4+ T cells” value (primary CD4+ T cells) was “reduced viability” and the “viability / number” value (primary CD4+ T cells) was “reduced viability”. The EC50 [4] was 24 nM and the Emax [4] was 0.3.

With CC1(C)[C@H]2CC=C(C(=O)N(CC(=O)NC3CCCCC3)Cc3cn(-c4cccc(Cl)c4)nn3)[C@@H]1C2 [3b, (1R,5S)-N-{[1-(3-chlorophenyl)-1H-1,2,3-triazol-4-yl]methyl}-N-[2-(cyclohexylamino)-2-oxoethyl]-6,6-dimethylbicyclo[3.1.1]hept-2-ene-2-carboxamide] the “cytotoxicity against AGS cells” value [1] was “high cytotoxicity”, the Emax [1] was 0.2 and the EC50 [1] was 49 ± 8 nM. For the same compound, the Emax [2] was 0.4, the EC50 [2] was 21 ± 7 nM and the “effect on HDF viability” value [3] was “without affecting HDF viability”. The “viability of non-proliferating CD4+ T cells” value (primary CD4+ T cells) was “did not reduce viability”, the “viability / number” value (primary CD4+ T cells) was “able to reduce number of proliferating cells” and the EC50 [4] was 24 ± 7 nM. It also gave an Emax [4] of 0.5.

For COc1ccc(-n2cc(CN(CC(=O)NC3CCCCC3)C(=O)C3=CC[C@H]4C[C@@H]3C4(C)C)nn2)cc1 [3c, (1R,5S)-N-[2-(cyclohexylamino)-2-oxoethyl]-N-{[1-(4-methoxyphenyl)-1H-1,2,3-triazol-4-yl]methyl}-6,6-dimethylbicyclo[3.1.1]hept-2-ene-2-carboxamide], the “cytotoxicity against AGS cells” value [1] was “high cytotoxicity”, the Emax [1] was 0.1 and the EC50 [1] was 75 nM. For the same compound, the Emax [2] was 0.4, the EC50 [2] was 38 nM and the “effect on HDF viability” value [3] was “without affecting HDF viability”. The “viability of non-proliferating CD4+ T cells” value (primary CD4+ T cells) was “reduced viability”, the “viability / number” value (primary CD4+ T cells) was “reduced viability” and the EC50 [4] was 38 nM. For the same compound, the Emax [4] was 0.4.

CC1(C)[C@H]2CC=C(Cn3cc(CN(CC(=O)NC4CCCCC4)C(=O)C4=CC[C@H]5C[C@@H]4C5(C)C)nn3)[C@@H]1C2 [3d, (1R,5S)-N-[2-(cyclohexylamino)-2-oxoethyl]-N-({1-[((1R,5S)-6,6-dimethylbicyclo[3.1.1]hept-2-en-2-yl)methyl]-1H-1,2,3-triazol-4-yl}methyl)-6,6-dimethylbicyclo[3.1.1]hept-2-ene-2-carboxamide] was tested, and the “cytotoxicity against AGS cells” value [1] was “high cytotoxicity”, the Emax [1] was 0.1 and the EC50 [1] was 33 nM. The EC50 [5] was 22 to 33 nM, the Emax [2] was 0.1 and the EC50 [2] was 33 nM. For the same compound, the “effect on HDF viability” value [3] was “without affecting HDF viability”, the “viability of non-proliferating CD4+ T cells at cycle 0” value (primary CD4+ T cells) was “did not reduced viability” and the “viability of proliferating CD4+ T cells at cycle 4” value (primary CD4+ T cells; cycle 4) was “lowest capacity to reduce viability”. It also gave an EC50 [4] of 22 nM and an Emax [4] of 0.1.

In the case of CC(=O)OC[C@@H]1O[C@H](n2cc(CN(CC(=O)NC3CCCCC3)C(=O)C3=CC[C@H]4C[C@@H]3C4(C)C)nn2)[C@@H](OC(C)=O)[C@H](OC(C)=O)[C@H]1OC(C)=O [3e, (2S,3S,4R,5S,6S)-2-(acetoxymethyl)-6-[4-({(1R,5S)-N-[2-(cyclohexylamino)-2-oxoethyl]-6,6-dimethylbicyclo [3.1.1]hept-2-ene-2-carboxamido}methyl)-1H-1,2,3-triazol-1-yl]tetrahydro-2H-pyran-3,4,5-triyl triacetate], the “cytotoxicity against AGS cells” value [1] is reported as “low activity”.

With CC1(C)[C@H]2CC=C(C(=O)N(CC#CC#CCN(CC(=O)NC3CCCCC3)C(=O)C3=CC[C@H]4C[C@@H]3C4(C)C)CC(=O)NC3CCCCC3)[C@@H]1C2 [4a, (1R,1′R,5S,5′S)-N,N′-(hexa-2,4-diyne-1,6-diyl)-bis{N-[2-(cyclohexylamino)-2-oxoethyl]-6,6-dimethylbicyclo [3.1.1]hept-2-ene-2-carboxamide}] the “cytotoxicity to AGS cells (preliminary screen)” value [1] was “not cytotoxic”.
